In ChEMBL document CHEMBL1149604, “Disaccharide analogs as probes for glycosyltransferases in Mycobacterium tuberculosis” (Bioorg Med Chem, 2007):

The molecules below were run on Mycolicibacterium smegmatis (assay: Activity of Mycobacterial smegmatis-galactosyltransferase after 1 hr).

SMILES | Km [µM]
CN(C)c1cccc2c(S(=O)(=O)NCCO[C@@H]3O[C@@H]([C@@H](O)CO[C@@H]4O[C@@H]([C@@H](O)CO)[C@H](O)[C@H]4O)[C@H](O)[C@H]3O)cccc12 | 2380
[N-]=[N+]=Nc1cccc2c(S(=O)(=O)NCCO[C@@H]3O[C@@H]([C@@H](O)CO[C@@H]4O[C@@H]([C@@H](O)CO)[C@H](O)[C@H]4O)[C@H](O)[C@H]3O)cccc12 | 1980
[N-]=[N+]=Nc1cccc2c(S(=O)(=O)NCCO[C@@H]3O[C@@H](C[C@H](CO)OC4O[C@@H]([C@@H](O)CO)[C@H](O)[C@H]4O)[C@H](O)[C@H]3O)cccc12 (stereo partly specified) | 2770
CN(C)c1cccc2c(S(=O)(=O)NCCO[C@@H]3O[C@@H](C[C@H](CO)O[C@@H]4O[C@@H]([C@@H](O)CO)[C@H](O)[C@H]4O)[C@H](O)[C@H]3O)cccc12 | 7330

What follows are molecules tested on Mycolicibacterium smegmatis (assay: Activity of Mycobacterial smegmatis-arabinosyltransferase after 1 hr).

SMILES | Km [µM]
CN(C)c1cccc2c(S(=O)(=O)NCCO[C@H]3O[C@H](CO[C@H]4O[C@H](CO)[C@@H](O)[C@@H]4O)[C@@H](O)[C@@H]3O)cccc12 | 680
[N-]=[N+]=Nc1cccc2c(S(=O)(=O)NCCO[C@H]3O[C@H](CO[C@H]4O[C@H](CO)[C@@H](O)[C@@H]4O)[C@@H](O)[C@@H]3O)cccc12 | 3070
